The source of these data is US6869974B1, “Pharmaceutical compounds” (Nicox S.A., priority 1999, dated 2005).

Data set [1] is described as follows: in vivo. The following applies: rat, in vivo. The procedure: (§1) The animals (rats) are distributed in the following groups (no. 10 animals for group):
(§2) • 1° group: treatment: only carrier (aqueous suspension 1% w/v of carboxyymethylcellulose, dose: 5 ml/Kg when the drug is administered by os, or a physiologic solution when parenterally administered, i.e. by subcutaneous, intraperitoneal, ir-ravenous or intermuscular route), • 2° group: treatment: carrier as above defined+NEM, B) Groups treated with the drug: • group I: treatment: carrier+drug, • gruppo II: treatment: carrier+drug+NEM.
(§3) The administration routes are those known for the drug, and can be the oral or subcutaneous, intraperitoneal, intravenous or intramuscular route.
(§4) The animals are sacrificed after 24 hours and then one proceeds to the evaluation of the damage to the gastrointestinal mucosa.
(§5) Test 1—experimental model in vivo with N-ethylmaleimide (NEM): study of the gastric tolerability of some drugs screened as precursors of the compounds of the invention.
(§6) The animals (rats, weight about 200 g) are distributed in the following groups (No. 10 animals for group):
(§7) • 1° group: treatment: only carrier (aqueous suspension 1% w/v of carboxymethylcellulose, dose: 5 ml/Kg when the drug is administered by os, physiologic solution when by parenteral route), • 20 group: treatment: carrier+NEM, B) Groups administered with each drug: • group I: treatment: carrier+drug, • group II: treatment: carrier+drug+NEM.
(§8) The drug is administered one hour later, in suspension in the carrier. Animals are sacrificed after 24 hours and evaluation of the damage to the gastrointestinal mucosa is made by counting the number of rats, inside each group, with lesions to the stomach at a visual inspection. The total number of said rats is then divided by the total number of rats of the group and multiplied by 100.

The test system of data set [2] is Human endothelial cells of the umbilical vein. The data set can be described thus: Test 2 (CIP): apoptosis (DNA fragmentation) induced by cumene hydroperoxide in endothelial cells. It counts as cell-based. The following applies: for activity at 100 µM: Homo sapiens, Endothelial cell, 1 h, read-out: Apoptosis % with respect to the controls treated only with CIP; for inhibition of apoptosis induced by CIP (in words, significance p<0.01): CIP 5 mM. The procedure: Test 2 (CIP): Protection parameter of endothelial cell against the oxidative stress induced by cumene hydroperoxide (CIP).
Human endothelial cells of the umbilical vein are prepared according to an usual standard procedure. Fresh umbilical veins are filled with a 0.1% by weight collagenase solution and incubated at 37° C. for 5 minutes.
The cells are collected from the perfusate by centrifugation and harvested in culture flasks T-75, pretreated with human fibronectin. The cells are then harvested in the same medium, further added with 10 ng/ml of bovine hypothalamic growth factor. When the cells of the primary cell culture (i.e. that directly obtained from ex-vivo) form a single layer of confluent cells (about 8,000,000 cells/flask), the culture is stopped and the layers washed and trypsinized. The cellular suspensions are transferred into the wells of a cell culture plate having 24 wells, half of which is then additioned with the same culture medium containing the drug at a 10^−4M concentration, and harvested in a thermostat at 37° C. at a constant moisture. Only the cells coming from said first sub-cultures are used for the experiments with cumene hydroperoxide (CIP).
Before starting the test, the cellular culture medium is removed and the cellular layers are carefully washed with a physiologic solution at a temperature of 37° C. The wells of the culture plate are then incubated for one hour with CIP at a 5 mM concentration in the culture medium. […] 5 replicates for each sample are carried out.
Human endothelial cells of the umbilical vein are prepared according to a standard method. Fresh umbilical veins are filled with a collagenase solution 0.1% by weight and incubated at 37° C. for 5 minutes.
The cells are collected from the perfusate by centrifugation at 800 rpm and harvested in culture flasks T-75, pretreated with human fibronectin. Cells are then harvested in the same medium, added with bovine hypothalamic growth factor (100 ng/ml). When the cells of the primary cell culture (the cells directly removed from ex-vivo umbilical vein) form a single layer of confluent cells (abdut 8,000,000 cells/flask), harvesting is stopped and the layers are washed and trypsinized. The cellular suspensions are transferred into wells of a culture plate having 24 wells, half of said wells being added with the same culture medium containing the drug at a 10^−4M concentration, and harvested in a thermostat at 37° C. at a constant moisture (90%), CO2=5%. When the drug is not soluble in the culture medium, it is formerly dissolved in a small amount of di-methylsulphoxide. The maximum amount of dimethylsulphoxide which can be added to the culture medium is 0.5%. Only the cells coming from these first subcultures are used for the tests with cumene hydroperoxide (CIP).
Before starting the test, the cellular culture medium is removed and the cellular layers are carefully washed with a standard physiologic solution buffered with phosphate 0.1 M pH 7.0, at the temperature of 37° C. The content of each well is then incubated for one hour with a CIP suspension in the culture medium at a 5 mM concentration. Evaluation of the cellular damage (apoptosis) is carried out by determining the percent variation of the DNA fragmentation in the cultures containing the drug+CIP with respect to the controls treated with CIP only. […] The fluorescence of each sample was determined on 5 replicates. Statistic evaluation has been made with t Student test (p<0.01).

Data set [3] is described as follows: Test 4: inhibition of radical production from DPPH. Conditions: 100 μM (10^-4 M) in methanol, 30 minutes, absorbance 517 nm. The procedure:
Test 4 is a […] test which affords to establish whether the precursor of B or B1 (precursor of the X2 or X2a of the formulas (I) and (II) respectively), inhibits the production of radicals from DPPH (2,2-diphenyl-1-picryl-hydrazyl) (M. S. Nenseter et Al., Atheroscler. Thromb. 15, 1338-1344, 1995). 100 μM solutions in methanol of the tested substances are prepared, and an aliquot of each of said solutions is added to a DPPH solution in methanol […]. After having stored the solutions at room temperature away from light for 30 minutes, their absorbances are read at the wave length of 517 nm, together with that of the corresponding DPPH solution at the same concentration. The absorbance decrease with respect to that of the solution of DPPH at the same concentration of the test solutions is determined. The effectiveness of the tested compound in inhibiting formation of radicals by DPPH is expressed by the following formula: (1−AS/AC)X100 wherein AS and AC are respectively the absorbance values of the solution containing the test compound together with DPPH and of the solution containing only DPPH.
The B or B1 precursor satisfies test 4 if their effectiveness in inhibiting radical production as above defined, is equal to or higher than 50% at the indicated concentration (10^−4 M).
Test 4: inhibition of the radical production from DPPH of some substances to be used as precursors of B or B1 (ref. Formulas I and II of the invention)
The method is based on a colorimetric test in which DPPH (2,2-diphenyl-1-picryl-hydrazyl) is used as the compound-forming radicals (M. S. Nenseter et Al., Atheroscler. Thromb. 15, 1338-1344, 1995).
Solutions in methanol of the tested substances at a final concentration 100 μM are initially prepared. 0.1 ml of each of these solutions are added to aliquots of 1 ml of a methanol solution 0.1 M of DPPH and then the final volume is brought to 1.5 ml. After having stored the solutions at room temperature away from light for 30 minutes, the absorbance at the wave length of 517 nm is read. It is determined the absorbance decrease with respect to the absorbance of a solution containing the same concentration of DPPH.
The efficacy of the test compound to inhibit the production of radicals, or antiradical activity, is expressed by the following formula: (1−AS/AC)X100 wherein AS and AC are, respectively, the absorbance values of the solution containing the test compound together+DPPH and of the solution containing only DPPH.
The compound meets test 4 if radical production inhibition, as above defined, is equal to or higher than 50%.

In data set [4] the test system is rats not treated or treated with NEM. The data set can be described thus: in vivo. Conditions: rats not treated with NEM; single dose; route given with each value (p.o., i.c., s.c.). The procedure: as §1, §2, §3, §4, §5, §6, §7, §8
The mark [5] stands for this setting: Table II, drug 10^-4 M, CIP 5 mM for one hour, DNA fragmentation.

“Also recorded” adds a separate entry of the source.

`CCCCC(C)(O)C/C=C/[C@H]1[C@H](O)CC(=O)[C@@H]1CCCCCCC(=O)OC` (mixture of isomers) [Misoprostol, misoprostol] returned an MTD at 24 h in data set [1] of 0.5 mg/kg.

As to `NCCCC(O)(P(=O)(O)O)P(=O)(O)O` [Alendronate, sodic alendronate], in data set [2] (setting [5]), the activity at 100 µM came out at 160%. Also, the “inhibition of apoptosis induced by CIP (in words, significance p<0.01)” value (from here on “inhibition … (in words, significance p<0.01)”) in data set [2] (drug 10^-4 M) was “do not significantly inhibit apoptosis”.

In the case of `Nc1c(Br)cc(Br)cc1CN[C@H]1CC[C@H](O)CC1` [Ambroxol, ambroxol], the “inhibition … (in words, significance p<0.01)” value in data set [2] (drug 10^-4 M) is reported as “inhibit apoptosis”.

`CC1(C)S[C@@H]2[C@H](NC(=O)[C@H](N)c3ccccc3)C(=O)N2[C@H]1C(=O)O` [Ampicilline, ampicilline]: the “inhibition … (in words, significance p<0.01)” value in data set [2] (drug 10^-4 M) is “do not significantly inhibit apoptosis”.

`N[C@@H](CS)C(=O)O` [Cisteine, cisteine]: in data set [3] (100 µM), the “% inhibition radicals from DPPH” value is recorded as 100%.

With `Cn1c(=O)c2c(ncn2CC(O)CO)n(C)c1=O` (stereo not shown) [Diphylline, diphylline], the activity at 100 µM in data set [2] (setting [5]) was 95%. For the same compound, in data set [2] (drug 10^-4 M), the “inhibition … (in words, significance p<0.01)” value was “do not significantly inhibit apoptosis”.

With `COc1cc(/C=C/C(=O)O)ccc1O` [Ferulic acid, ferulic acid], the “% inhibition radicals from DPPH” value in data set [3] (100 µM) is 100%.

For `O=C(O)c1cc(O)ccc1O` [Gentisic acid, gentisic acid], the “% inhibition radicals from DPPH” value in data set [3] (100 µM) amounted to 80%.

As to `COc1ccc2c(c1)c(CC(=O)O)c(C)n2C(=O)c1ccc(Cl)cc1` [Indomethacin, indomethacin], in data set [4], the “maximum tolerated dose (dose (mg/Kg)/admin. route)” value (“maximum tolerated dose” for short) was 7.5 mg/kg. For the same compound, in data set [2] (setting [5]), the activity at 100 µM was 95%. Also, the “Apoptosis % with respect to the controls treated only with CIP” value (shortened to “Apoptosis %”) in data set [2] (Table III, second apoptosis experiment (Example F6), CIP-induced DNA fragmentation) came to 95%. The “inhibition … (in words, significance p<0.01)” value in data set [2] (drug 10^-4 M) is reported as “not significantly different with respect to that of the controls”; in data set [2] (drug 10^-4 M, listed as indomethacin), “do not significantly inhibit apoptosis”.

In data set [1], `Nc1ccc(O)c(C(=O)O)c1` [Mesalamine, mesalamine] showed an MTD at 24 h of 750 mg/kg. Besides, in data set [2] (setting [5]), the activity at 100 µM came to 74%. Also, the “inhibition … (in words, significance p<0.01)” value in data set [2] (drug 10^-4 M) is “inhibit apoptosis; also recorded: inhibits the apoptosis induced by CIP”.

Turning to `CC(=O)N[C@H](CS)C(=O)O` [N-acetylcisteine], the “% inhibition radicals from DPPH” value in data set [3] (listed as N-acetylcysteine, 100 µM) is given as 100%.

On to `NC(=O)c1cccnc1` [Nicotinamide, nicotinamide], for which, in data set [2] (setting [5]), the activity at 100 µM stood at 98%. In addition, the “inhibition … (in words, significance p<0.01)” value in data set [2] (drug 10^-4 M) was “do not significantly inhibit apoptosis”.

In the case of `COc1ccc2[nH]c([S+]([O-])Cc3ncc(C)c(OC)c3C)nc2c1` (stereo not shown) [Omeprazol, omeprazol], in data set [4], the “maximum tolerated dose” value was 30/s.c. mg/Kg. In addition, the activity at 100 µM in data set [2] (setting [5]) was 90%. Moreover, the “inhibition … (in words, significance p<0.01)” value in data set [2] (drug 10^-4 M) is on record as “do not significantly inhibit apoptosis”.

`CC(=O)Nc1ccc(O)cc1` [Paracetamol, paracetamol]: the activity at 100 µM in data set [2] (setting [5]) came out at 120%. The “inhibition … (in words, significance p<0.01)” value in data set [2] (drug 10^-4 M) is “do not significantly inhibit apoptosis; also recorded: not significantly different with respect to that of the controls”.

For the compound `CC(C)(S)[C@@H](N)C(=O)O` [Penicillamine, penicillamine], the “% inhibition radicals from DPPH” value in data set [3] is 100%.

Consider `CC(C)(C)NCC(O)c1ccc(O)c(CO)c1` (stereo not shown) [Salbutamol, salbutamol], for which, in data set [2] (setting [5]), the activity at 100 µM was determined as 90%. Besides, the “inhibition … (in words, significance p<0.01)” value in data set [2] (drug 10^-4 M) is on record as “do not significantly inhibit apoptosis”.

For `CCC(C)(C)C(=O)O[C@H]1C[C@@H](C)C=C2C=C[C@H](C)C(CCC3CC(O)CC(=O)O3)[C@H]21` (stereo partly shown) [Simvastatine, simvastatine], the activity at 100 µM in data set [2] (setting [5]) is 72%.

Turning to `Nc1c2c(nc3ccccc13)CCCC2` [Tacrine, tacrine], the “maximum tolerated dose” value in data set [4] was 1/s.c. mg/Kg. Moreover, in data set [2] (setting [5]), the activity at 100 µM amounted to 90%. The “inhibition … (in words, significance p<0.01)” value in data set [2] (drug 10^-4 M) was “do not significantly inhibit apoptosis”.

Consider aciclovir, for which, in data set [2] (setting [5]), the “Apoptosis %” value turned out to be 95%. Moreover, the “inhibition … (in words, significance p<0.01)” value in data set [2] (drug 10^-4 M) was “do not significantly inhibit apoptosis”.

Turning to cetirizine, the “Apoptosis %” value in data set [2] (setting [5]) came out at 115%. The “inhibition … (in words, significance p<0.01)” value in data set [2] (drug 10^-4 M) is “do not significantly inhibit apoptosis”.

On to clopidogrel, for which the “Apoptosis %” value in data set [2] (setting [5]) was 110%. Further, the “inhibition … (in words, significance p<0.01)” value in data set [2] (drug 10^-4 M) is reported as “do not significantly inhibit apoptosis”.

Regarding enalapril, the “inhibition … (in words, significance p<0.01)” value in data set [2] (drug 10^-4 M) is “do not significantly inhibit apoptosis”.
